Measured values: EP4772530A1, “PEPTIDE TARGETING SOMATOSTATIN RECEPTOR, DRUG CONJUGATE AND USE THEREOF” (Mainline Biosciences (Shanghai) Co., Ltd., priority 2023, dated 2025)
Read-outs that look alike come from different tables or passages of the source. *1 amine or outer side, *2 acyl side, *3 side chain or, on linkers, in order; H or OH if unused. Where a SMILES comes first, the peptide text is derived from it. Bridges are numbered along the chain shown (N, C = ends). Roman numbers before positions name the chains, in order. [ ]: non-standard residue; d: D form. The star is where a group is joined. X4 = CC(=O)N[C@@H](CSC1CC(=O)N(CCCCCC(=O)[*:2])C1=O)C(=O)NCCOCCOCCOCCOCCOCCOCCC(=O)[*:1]; Exatecan = CC[C@@]1(O)C(=O)OCc2c1cc1n(c2=O)Cc2c-1nc1cc(F)c(C)c3c1c2[C@@H](N*)CC3; X1 = O=C(O)[C@H]1O[C@@H](Oc2ccc(COC(=O)[*:2])cc2N[*:1])[C@H](O)[C@@H](O)[C@@H]1O; Hexanoyl(6-succinimido-3yl) = O=C1CC([*:1])C(=O)N1CCCCCC(=O)[*:2]; Dolaproine = CO[C@@H]([C@@H]1CCCN1)[C@@H](C)C(=O)O; X3 = O=C(CCCCCN1C(=O)CC([*:1])C1=O)NCCC(=O)[*:2]; Dil = CC[C@H](C)[C@H](NC)[C@@H](CC(=O)O)OC; PEG6 = NCCOCCOCCOCCOCCOCCOCCC(=O)O; NHCH2OCH2CO = O=C(COCN[*:1])[*:2]; X2 = C[C@@H](N*)[C@@H](O)c1ccccc1; NMeV = CN[C@H](C(=O)O)C(C)C; AEEA = NCCOCCOCC(=O)O

How the values were obtained:
NCI-H69 = assay: Cell killing in NCI-H69 by CGT (CellTiter-Glo); type: cell-based; settings: NCI-H69, 96 h; for Bottom (Inhibition at Lowest Point) / Top (Inhibition at Highest Point): Inh% relative to DMSO control, 4-parameter fit
Method: Approximately 5 µL of the PDC was added to the corresponding wells of the plate, and compared with DMSO (control, without the PDC of the present application), PTX, MMAE, and Dxd wells. The final concentration of DMSO in each well was 0.2%; • (5) The cells were incubated in a 5% CO2 incubator at 37°C for 96 h; • (6) The cell culture plate was equilibrated to room temperature, and 50 µL of CellTiter-Glo® Reagent was added to each well; • (7) The plate was placed on a shaker for 2 min to ensure complete cell lysis; • (8) After mixing, the plate was placed at room temperature to react for 10 min. The fluorescence value (in RLU) was read when the signal became stable. • c) Data analysis • (1) The inhibition (Inh %) relative to the DMSO control was calculated as follows: Inhibition (Inh%)= 100 -(RLU of compound - RLU of DMSO control)/ (RLU of DMSO control - RLU of blank)*100% • (2) The data were analyzed using Graphpad 5.0 software. A 4-parameter equation was fitted to generate a concentration-response curve to obtain the IC50. Table 3: Test Results of Cell Killing in NCI-H69

SSTR2 = target: T1, SSTR2 (Homo sapiens, UniProt P30874); assay: SSTR2 cAMP test; type: cell-based; settings: for activity at 50 µM: Max Dose 50000 nM; for EC50: SSTR2/CHO cells, Forskolin, cAMP activation rate
T1 construct: expressed in transfected cells; host or cells: CHO cells (SSTR2/CHO)
T1 sequence (P30874 whole entry): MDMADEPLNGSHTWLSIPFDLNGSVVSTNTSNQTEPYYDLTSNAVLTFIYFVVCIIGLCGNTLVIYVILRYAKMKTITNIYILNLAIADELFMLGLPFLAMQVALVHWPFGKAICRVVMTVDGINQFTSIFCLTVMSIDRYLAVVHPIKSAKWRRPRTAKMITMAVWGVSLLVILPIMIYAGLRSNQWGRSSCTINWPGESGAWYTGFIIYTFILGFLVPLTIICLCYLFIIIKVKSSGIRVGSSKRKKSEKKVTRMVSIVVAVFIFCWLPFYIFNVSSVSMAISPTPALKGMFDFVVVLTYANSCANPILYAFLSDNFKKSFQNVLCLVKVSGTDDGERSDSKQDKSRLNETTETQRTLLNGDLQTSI
Method: • 1) Compound preparation: The test compound was diluted by 4-fold with DMSO to obtain 10 different concentration points. Approximately 100 nL of the diluted compound was then transferred to a cell reaction plate and centrifuged for later use. • 2) Cell preparation:The cultured SSTR2/CHO cells were collected into a sterile centrifuge tube, and the supernatant was discarded by centrifugation. • 3) The cells were resuspended in assay buffer, counted using a Vi-cell counter, and diluted with assay buffer. • 4) Approximately 100 nL of 100 µM Forskolin was transferred into the cell reaction plate using an Echo and centrifuged. Then, 10 µL of assay buffer containing the cells was added and incubated. • 5) Approximately 10 µL of cAMP detection reagent solution was added to the corresponding wells of the cell reaction plate, and incubated at room temperature in the dark. • 6) The plate was read using a microplate reader. The final value was determined as the ratio of OD at 665 nm to that at 615 nm. • 7) The cAMP value was calculated for each well: Activity (%)=(signal value of sample well - mean signal value of low-signal control wells)/ (mean signal value of high-signal control wells - mean signal value of low-signal control wells). Fitting was performed using the "Nonlinear regression (curve fit)-log(agonist) vs. response -- Variable slope" model in GraphPad Prism 5.0, with the log-transformed compound concentration on the x-axis and cAMP activation rate on the y-axis. The EC50 value of the sample was calculated accordingly. Table 2: SSTR2 cAMP Test Results

CC(=O)O[C@H]1C(=O)[C@@]2(C)[C@H]([C@H](OC(=O)c3ccccc3)[C@]3(O)C[C@H](OC(=O)[C@H](O)[C@@H](NC(=O)c4ccccc4)c4ccccc4)C(C)=C1C3(C)C)[C@]1(OC(C)=O)CO[C@@H]1C[C@@H]2O [PTX]
Bottom (Inhibition at Lowest Point) (NCI-H69): 0.47
Top (Inhibition at Highest Point) (NCI-H69): 78.37
IC50 (NCI-H69; read-out: IC50): 3.74 nM

CC[C@@]1(O)C(=O)OCc2c1cc1n(c2=O)Cc2c-1nc1cc(F)c(C)c3c1c2[C@@H](NC(=O)COCNC(=O)CNC(=O)[C@H](Cc1ccccc1)NC(=O)CNC(=O)CNC(=O)CCCCCN1C(=O)CC(SC[C@H](NC(C)=O)C(=O)NCCOCCOCCOCCOCCOCCOCCC(=O)N[C@@H](CCCNC(=N)N)C(=O)N[C@@H](CCCNC(=N)N)C(=O)N[C@@H](CC(C)C)C(=O)N[C@@H](Cc2ccccc2)C(=O)N[C@H]2CSSC[C@@H](C(=O)N[C@H](C(=O)N[C@@H](Cc4c[nH]c5ccccc45)C(=O)N[C@@H](CCCNC(=N)N)C(=O)N[C@@H](CC(=O)O)C(N)=O)[C@@H](C)O)NC(=O)[C@H]([C@@H](C)O)NC(=O)[C@H](CCCCN)NC(=O)[C@@H](Cc4c[nH]c5ccccc45)NC(=O)[C@H](Cc4ccc(O)cc4)NC2=O)C1=O)CC3 (stereo partly drawn) [Example 6, Ac-Cys(MC-Gly-Gly-Phe-Gly-NH-CH2-Dxd)-PEG6-Arg-Arg-Leu-Phe-[Cys-Tyr-D-Trp-Lys-Thr-Cys]-Thr-Trp-Arg-Asp-NH2] (I: Ac-C[PEG6]RRLFCY[dW]KTCTWRD-NH2 / II: GGFG[NHCH2OCH2CO]-Exatecan; linker I:1-II:N via Hexanoyl(6-succinimido-3yl); disulfide I:7-I:12)
IC50 (NCI-H69): 276 nM
activity at 50 µM (SSTR2): 67.8%
EC50 (SSTR2): 148 nM

CC[C@H](C)[C@@H]([C@@H](CC(=O)N1CCC[C@H]1[C@H](OC)[C@@H](C)C(=O)N[C@H](C)[C@@H](O)c1ccccc1)OC)N(C)C(=O)[C@@H](NC(=O)[C@H](C(C)C)N(C)C(=O)OCc1ccc(O[C@@H]2O[C@H](C(=O)O)[C@@H](O)[C@H](O)[C@H]2O)c(NC(=O)CCNC(=O)CCCCCN2C(=O)CC(SC[C@H](NC(C)=O)C(=O)NCCOCCOCC(=O)NCCOCCOCC(=O)NCCOCCOCC(=O)N[C@@H](CCCNC(=N)N)C(=O)N[C@@H](CCCNC(=N)N)C(=O)N[C@@H](CC(C)C)C(=O)N[C@@H](Cc3ccccc3)C(=O)N[C@H]3CSSC[C@@H](C(=O)N[C@H](C(=O)N[C@@H](Cc4c[nH]c5ccccc45)C(=O)N[C@@H](CCCNC(=N)N)C(=O)N[C@@H](CC(=O)O)C(N)=O)[C@@H](C)O)NC(=O)[C@H]([C@@H](C)O)NC(=O)[C@H](CCCCN)NC(=O)[C@@H](Cc4c[nH]c5ccccc45)NC(=O)[C@H](Cc4ccc(O)cc4)NC3=O)C2=O)c1)C(C)C (stereo partly drawn) [Example 4, Ac-Cys(MC-betaglucuronide-MMAE)-AEEA-AEEA-AEEA-Arg-Arg-Leu-Phe-[Cys-Tyr-D-Trp-Lys-Thr-Cys]-Thr-Trp-Arg-Asp-NH2] (I: Ac-C[AEEA][AEEA][AEEA]RRLFCY[dW]KTCTWRD-NH2 / II: [X1][NMeV]V[Dil][Dolaproine]-X2; linker I:1-II:N via X3; disulfide I:9-I:14)
Bottom (Inhibition at Lowest Point) (NCI-H69): 3.88
Top (Inhibition at Highest Point) (NCI-H69): 75.08
activity at 50 µM (SSTR2): 95.2%

CC[C@@]1(O)C(=O)OCc2c1cc1n(c2=O)Cc2c-1nc1cc(F)c(C)c3c1c2[C@@H](NC(=O)COCNC(=O)CNC(=O)[C@H](Cc1ccccc1)NC(=O)CNC(=O)CNC(=O)CCCCCN1C(=O)CC(SC[C@H](NC(C)=O)C(=O)NCCOCCOCCOCCOCCOCCOCCC(=O)NCCCC[C@H](NC(=O)CCOCCOCCOCCOCCOCCOCCNC(=O)[C@H](CSC2CC(=O)N(CCCCCC(=O)NCC(=O)NCC(=O)N[C@@H](Cc4ccccc4)C(=O)NCC(=O)NCOCC(=O)N[C@H]4CCc5c(C)c(F)cc6nc7c(c4c56)Cn4c-7cc5c(c4=O)COC(=O)[C@]5(O)CC)C2=O)NC(C)=O)C(=O)N[C@@H](CCCCNC(=O)CCOCCOCCOCCOCCOCCOCCNC(=O)[C@H](CSC2CC(=O)N(CCCCCC(=O)NCC(=O)NCC(=O)N[C@@H](Cc4ccccc4)C(=O)NCC(=O)NCOCC(=O)N[C@H]4CCc5c(C)c(F)cc6nc7c(c4c56)Cn4c-7cc5c(c4=O)COC(=O)[C@]5(O)CC)C2=O)NC(C)=O)C(=O)NCCOCCOCCOCCOCCOCCOCCC(=O)N[C@@H](CCCNC(=N)N)C(=O)N[C@@H](CCCNC(=N)N)C(=O)N[C@@H](CC(C)C)C(=O)N[C@@H](Cc2ccccc2)C(=O)N[C@H]2CSSC[C@@H](C(=O)N[C@H](C(=O)N[C@@H](Cc4c[nH]c5ccccc45)C(=O)N[C@@H](CCCNC(=N)N)C(=O)N[C@@H](CC(=O)O)C(N)=O)[C@@H](C)O)NC(=O)[C@H]([C@@H](C)O)NC(=O)[C@H](CCCCN)NC(=O)[C@@H](Cc4c[nH]c5ccccc45)NC(=O)[C@H](Cc4ccc(O)cc4)NC2=O)C1=O)CC3 (stereo partly drawn) [Example 7, Ac-Cys(MC-Gly-Gly-Phe-Gly-NH-CH2-Dxd)-PEG6-Lys(Ac-Cys(MC-Gly-Gly-Phe-Gly-NH-CH2-Dxd)-PEG6)-Lys(Ac-Cys(MC-Gly-Gly-Phe-Gly-NH-CH2-Dxd)-PEG6)-PEG6-Arg-Arg-Leu-Phe-[Cys-Tyr-D-Trp-Lys-Thr-Cys]-Thr-Trp-Arg-Asp-NH2] (I: Ac-C[PEG6]KK[PEG6]RRLFCY[dW]KTCTWRD-NH2 / II: GGFG[NHCH2OCH2CO]-Exatecan / III: GGFG[NHCH2OCH2CO]-Exatecan / IV: GGFG[NHCH2OCH2CO]-Exatecan; linker I:1-III:N via Hexanoyl(6-succinimido-3yl); linker I:3-II:N, I:4-IV:N via X4; disulfide I:10-I:15)
IC50 (NCI-H69): 122 nM
activity at 50 µM (SSTR2): 54.4%
EC50 (SSTR2): 23400 nM

CC[C@@]1(O)C(=O)OCc2c1cc1n(c2=O)Cc2c-1nc1cc(F)c(C)c3c1c2[C@@H](NC(=O)CO)CC3 [Dxd]
IC50 (NCI-H69; Homo sapiens): 7.53 nM
Bottom (Inhibition at Lowest Point) (NCI-H69): = 0.0
Top (Inhibition at Highest Point) (NCI-H69): 98.19

CC(C)C[C@H](NC(=O)[C@H](CCCNC(=N)N)NC(=O)[C@@H](N)CCCNC(=N)N)C(=O)N[C@@H](Cc1ccccc1)C(=O)N[C@H]1CSSC[C@@H](C(=O)N[C@H](C(=O)N[C@@H](Cc2c[nH]c3ccccc23)C(=O)N[C@@H](CCCNC(=N)N)C(=O)N[C@@H](CC(=O)O)C(N)=O)[C@@H](C)O)NC(=O)[C@H]([C@@H](C)O)NC(=O)[C@H](CCCCN)NC(=O)[C@@H](Cc2c[nH]c3ccccc23)NC(=O)[C@H](Cc2ccc(O)cc2)NC1=O [SEQ ID No. 1, H-Arg-Arg-Leu-Phe-[Cys-Tyr-D-Trp-Lys-Thr-Cys]-Thr-Trp-Arg-Asp-NH2] (H-RRLFCY[dW]KTCTWRD-NH2; disulfide 5-10)
activity at 100 µM (SSTR2; Max Dose 100000 nM): 98%
EC50 (SSTR2): 217 nM

CC[C@@]1(O)C(=O)OCc2c1cc1n(c2=O)Cc2c-1nc1cc(F)c(C)c3c1c2[C@@H](NC(=O)COCNC(=O)CNC(=O)[C@H](Cc1ccccc1)NC(=O)CNC(=O)CNC(=O)CCCCCN1C(=O)CC(SC[C@H](NC(=O)CCOCCOCCOCCOCCOCCOCCN)C(=O)NCCOCCOCCOCCOCCOCCOCCC(=O)N[C@@H](CCCNC(=N)N)C(=O)N[C@@H](CCCNC(=N)N)C(=O)N[C@@H](CC(C)C)C(=O)N[C@@H](Cc2ccccc2)C(=O)N[C@H]2CSSC[C@@H](C(=O)N[C@H](C(=O)N[C@@H](Cc4c[nH]c5ccccc45)C(=O)N[C@@H](CCCNC(=N)N)C(=O)N[C@@H](CC(=O)O)C(N)=O)[C@@H](C)O)NC(=O)[C@H]([C@@H](C)O)NC(=O)[C@H](CCCCN)NC(=O)[C@@H](Cc4c[nH]c5ccccc45)NC(=O)[C@H](Cc4ccc(O)cc4)NC2=O)C1=O)CC3 (stereo partly drawn) [Example 5, PEG6-Cys(MC-Gly-Gly-Phe-Gly-NH-CH2-Dxd)-PEG6-Arg-Arg-Leu-Phe-[Cys-Tyr-D-Trp-Lys-Thr-Cys]-Thr-Trp-Arg-Asp-NH2] (I: H-[PEG6]C[PEG6]RRLFCY[dW]KTCTWRD-NH2 / II: GGFG[NHCH2OCH2CO]-Exatecan; linker I:2-II:N via Hexanoyl(6-succinimido-3yl); disulfide I:8-I:13)
IC50 (NCI-H69): 316 nM
activity at 50 µM (SSTR2): 83.5%
EC50 (SSTR2): 155 nM

CCC(C)C(C(CC(=O)N1CCCC1C(OC)C(C)C(=O)NC(C)C(O)c1ccccc1)OC)N(C)C(=O)C(NC(=O)C(NC)C(C)C)C(C)C (centres unmarked) [MMAE]
IC50 (NCI-H69; Homo sapiens, read-out: IC50): 0.57 nM
Bottom (Inhibition at Lowest Point) (NCI-H69): 0.31
Top (Inhibition at Highest Point) (NCI-H69): 85.99
